Results published in patent publication US10995091B2 (Proximagen, LLC, priority 2010, dated 2021).

What was measured:
[1] = test system: circulating white blood cells (WBC); test: In vivo mobilization of white blood cells (WBC count in peripheral blood); conditions: C57BL/6 mice
Description: (§1) The study investigated the ability of Example 30 alone and in combination with G-CSF to induce in vivo mobilization of white blood cells in C57BL/6 mice, as well as hematopoietic progenitors from bone marrow to peripheral blood as assessed by the evaluation of the frequency of colony forming cell colonies (CFC). Peripheral blood samples from each test group were collected 1 hour post injection. The white blood cell count (WBC) was determined from the peripheral blood collected for each individual mouse. Clonogenic progenitors of the multipotential (CFU-GEMM) lineages were assessed. Peripheral blood cells were added to MethoCult® 3434 in triplicate cultures for plating (0.5-3×10^5 cells/dish). Cultures were incubated for 8 days at 37° C., 5% CO2 in humidified incubators. CFU-GEMM colony number was enumerated microscopically using an inverted microscope from appropriately plated culture dishes.

HIV-1IIIB (CXCR4-tropic) = test: HIV anti-viral assay in MAGI-CCR5 cells (β-galactosidase reporter); type: cell-based; conditions: Human immunodeficiency virus 1, 48 hours with compound and virus, read-out: IC50, HIV-1 antiviral activity
Description: Example 30 was also tested in an HIV antiviral assay that detects compounds that block HIV-1IIIB (CXCR4-tropic) replication via targets in the viral life cycle. The anti-viral assay uses MAGI-CCR5 cells that naturally express CXCR4 which were engineered to express high levels of CD4 and CCR5 and to contain one copy of the HIV-1 LTR promoter driving expression of the β-galactosidase gene upon HIV 1 Tat transactivation. Cells are incubated with Example 30 and the CXCR4-tropic virus HIV-1IIIB for 48 hours after which antiviral efficacy is measured as the inhibition of β-galactosidase reporter expression and cytotoxicity is monitored by MTS staining.

[2] = test system: multipotential mixed hematopoietic progenitors (CFU-GEMM); test: In vivo mobilization of hematopoietic progenitors, colony forming cell assay (CFU-GEMM) from peripheral blood; conditions: C57BL/6 mice, one hour after treatment, compared to G-CSF treatment alone
Description: as §1

[3] = test system: HIV-1IIIB (CXCR4-tropic) virus; test: CXCR4-tropic HIV-1 attachment assay in MAGI-CCR5 cells (β-galactosidase reporter); type: cell-based; conditions: Human immunodeficiency virus 1, MAGI-CCR5, read-out: IC50, inhibition of attachment of CXCR4-tropic HIV-1
Description: Example 30 was tested in an HIV attachment assay, which detects compounds that block HIV-1IIIB (CXCR4-tropic) virus attachment to cells.
The CXCR4-tropic HIV-1 attachment assay uses MAGI-CCR5 cells that naturally express CXCR4 which were engineered to express high levels of CD4 and CCR5 and to contain one copy of the HIV-1 LTR promoter driving expression of the β-galactosidase gene upon HIV-1 Tat transactivation. Cells are incubated with Example 30 and the CXCR4-tropic virus HIV-1IIIB for 3 hours before washing to remove drug and unbound virus. Fresh media is added and the plates are incubated for 48 hours after which antiviral efficacy is measured as the inhibition of β-galactosidase reporter expression and cytotoxicity is monitored by MTS staining.

[4] = target: T1, Human CXCR4 transfected HEK293 cells (Homo sapiens, UniProt P61073); test: CXCR4 functional calcium assay (calcium flux FLIPR, antagonism of SDF1 response); type: cell-based; conditions: CXCR4 functional activity, antagonism of SDF1 (EC50 concentration), read-out: CXCR4 fKi
T1 construct: expressed in transfected cells; host or cells: HEK293
Outline: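 Dose-dependent antagonism of the SDF1 response was read by FLIPR as Fluo-4 calcium signal (2 μM dye) in CXCR4-expressing human HEK293 cells, in HBSS with probenecid, BSA and HEPES at pH 7.4 and 37° C. Test compound was given before an EC50-level SDF1 challenge. Curves were then fitted.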

[5] = test system: haematopoietic stem cells; conditions: donors or patients; background statement; cited from earlier work

T1 sequence (P61073 whole entry): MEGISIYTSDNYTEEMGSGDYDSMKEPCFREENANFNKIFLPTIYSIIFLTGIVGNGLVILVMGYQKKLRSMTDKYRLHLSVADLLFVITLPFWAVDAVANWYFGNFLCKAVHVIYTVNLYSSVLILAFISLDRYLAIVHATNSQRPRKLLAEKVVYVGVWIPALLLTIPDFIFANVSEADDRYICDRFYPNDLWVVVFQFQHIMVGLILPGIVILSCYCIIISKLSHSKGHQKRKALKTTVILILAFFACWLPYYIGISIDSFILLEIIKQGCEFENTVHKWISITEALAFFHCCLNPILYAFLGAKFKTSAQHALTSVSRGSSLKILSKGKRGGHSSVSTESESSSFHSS

SMILES	Ki [4]	further results
CC(C)N1CCC(N2CCCN(c3cccc(C(=O)Nc4ccncc4)n3)CC2)CC1 [Example 30, 6-{4-[1-(Propan-2-yl)piperidin-4-yl]-1,4-diazepan-1-yl}-N-(pyridin-4-yl)pyridine-2-carboxamide]	< 0.02 µM	circulating white blood cells (WBC) ([1]; 1 hour after treatment, compared to vehicle control group): significant increase; circulating white blood cells (WBC), in combination with G-CSF ([1]; after 1 hour, in combination with G-CSF, compared to G-CSF alone): significant increase; IC50 (HIV-1IIIB (CXCR4-tropic)): 0.03 µM; multipotential mixed hematopoietic progenitors (CFU-GEMM/ml), in combination with G-CSF [2]: significant increase; IC50 [3]: 0.04 µM
O=C(NCC1CC1)c1cccc(N2CCCN(CCCN3CCc4ccccc4C3)CC2)n1 [Example 252, N-(Cyclopropylmethyl)-6-{4-[3-(1,2,3,4-tetrahydroisoquinolin-2-yl)propyl]-1,4-diazepan-1-yl}pyridine-2-carboxamide]	0.5 to 1 µM	
O=C(NCC1CC1)c1cccc(N2CCCN(CCCN3CCC(F)(F)C3)CC2)n1 [Example 253, N-(Cyclopropylmethyl)-6-{4-[3-(3,3-difluoropyrrolidin-1-yl)propyl]-1,4-diazepan-1-yl}pyridine-2-carboxamide]	0.5 to 1 µM	
CC(C)NCC(O)CN1CCCN(c2cccc(C(=O)NCc3cccnc3)n2)CC1 (centres unmarked) [Example 254, 6-{4-[2-Hydroxy-3-(propan-2-ylamino)propyl]-1,4-diazepan-1-yl}-N-(pyridin-3-ylmethyl)pyridine-2-carboxamide]	0.1 to 0.5 µM	
c1cc(-c2ncc(C3CC3)[nH]2)nc(N2CCCN(C3CCC(N4CCCC4)CC3)CC2)c1 (centres unmarked) [Example 255, 1-[6-(4-Cyclopropyl-1H-imidazol-2-yl)pyridin-2-yl]-4-[4-(pyrrolidin-1-yl)cyclohexyl]-1,4-diazepane]	0.1 to 0.5 µM	
CC(C)(C)C1CCC(N2CCCN(c3cccc(C(=O)NCc4cccnc4)n3)CC2)CC1 (centres unmarked) [Example 256, 6-[4-(4-tert-Butylcyclohexyl)-1,4-diazepan-1-yl]-N-(pyridin-3-ylmethyl)pyridine-2-carboxamide]	0.02 to 0.1 µM	
O=C(Nc1ccncc1)c1cccc(N2CCCN(C3CCC(N4CCCC4C(F)(F)F)CC3)CC2)n1 (centres unmarked) [Example 257, N-(Pyridin-4-yl)-6-(4-{4-[2-(trifluoromethyl)pyrrolidin-1-yl]cyclohexyl}-1,4-diazepan-1-yl)pyridine-2-carboxamide]	0.5 to 1 µM	
O=C(NCC1CC1)c1cccc(N2CCCN(CCCNCc3ccccc3Cl)CC2)n1 [Example 258, 6-[4-(3-{[(2-Chlorophenyl)methyl]amino}propyl)-1,4-diazepan-1-yl]-N-(cyclopropylmethyl)pyridine-2-carboxamide]	0.1 to 0.5 µM	
N#Cc1cccc(N2CCCN(C3CCN(Cc4ccccc4Cl)CC3)CC2)n1 [Example 259, 6-(4-{1-[(2-Chlorophenyl)methyl]piperidin-4-yl}-1,4-diazepan-1-yl)pyridine-2-carbonitrile]	0.5 to 1 µM	
OCc1cccc(N2CCCN(C3CCN(Cc4ccccc4Cl)CC3)CC2)n1 [Example 260, [6-(4-{1-[(2-Chlorophenyl)methyl]piperidin-4-yl}-1,4-diazepan-1-yl)pyridin-2-yl]methanol]	0.5 to 1 µM	
Clc1ccccc1CN1CCC(N2CCCN(c3ccccn3)CC2)CC1 [Example 261, 1-{1-[(2-Chlorophenyl)methyl]piperidin-4-yl}-4-(pyridin-2-yl)-1,4-diazepane]	0.1 to 0.5 µM	
Cc1cccc(N2CCCN(C3CCN(Cc4ccccc4Cl)CC3)CC2)n1 [Example 262, 1-{1-[(2-Chlorophenyl)methyl]piperidin-4-yl}-4-(6-methylpyridin-2-yl)-1,4-diazepane]	0.5 to 1 µM	
Cc1ccc(N2CCCN(C3CCN(Cc4ccccc4Cl)CC3)CC2)nc1 [Example 263, 1-{1-[(2-Chlorophenyl)methyl]piperidin-4-yl}-4-(5-methylpyridin-2-yl)-1,4-diazepane]	0.1 to 0.5 µM	
Cc1ccnc(N2CCCN(C3CCN(Cc4ccccc4Cl)CC3)CC2)c1 [Example 264, 1-{1-[(2-Chlorophenyl)methyl]piperidin-4-yl}-4-(4-methylpyridin-2-yl)-1,4-diazepane]	0.1 to 0.5 µM	
O=C(NCC1CC1)c1csc(N2CCCN(C3CCN(Cc4ccccc4Cl)CC3)CC2)n1 [Example 265, 2-(4-{1-[(2-Chlorophenyl)methyl]piperidin-4-yl}-1,4-diazepan-1-yl)-N-(cyclopropylmethyl)-1,3-thiazole-4-carboxamide]	0.5 to 1 µM	
Cc1cc(C(=O)NCCCn2ccnc2)nc(N2CCCN(C3CCN(Cc4ccccc4Cl)CC3)CC2)n1 [Example 266, 2-(4-{1-[(2-Chlorophenyl)methyl]piperidin-4-yl}-1,4-diazepan-1-yl)-N-[3-(1H-imidazol-1-yl)propyl]-6-methylpyrimidine-4-carboxamide]	0.1 to 0.5 µM	
Clc1ccccc1CN1CCC(N2CCCN(c3nccs3)CC2)CC1 [Example 267, 1-{1-[(2-Chlorophenyl)methyl]piperidin-4-yl}-4-(1,3-thiazol-2-yl)-1,4-diazepane]	0.1 to 0.5 µM	
Cc1cc(C(=O)NCC2CC2)nc(N2CCCN(C3CCN(Cc4ccccc4Cl)CC3)CC2)c1 [Example 268, 6-(4-{1-[(2-Chlorophenyl)methyl]piperidin-4-yl}-1,4-diazepan-1-yl)-N-(cyclopropylmethyl)-4-methylpyridine-2-carboxamide]	0.1 to 0.5 µM	
O=C(NCC1CC1)c1ccnc(N2CCCN(C3CCN(Cc4ccccc4Cl)CC3)CC2)c1 [Example 269, 2-(4-{1-[(2-chlorophenyl)methyl]piperidin-4-yl}-1,4-diazepan-1-yl)-N-(cyclopropylmethyl)pyridine-4-carboxamide]	0.1 to 0.5 µM	
COc1ccc(C(=O)NCC2CC2)nc1N1CCCN(C2CCN(Cc3ccccc3Cl)CC2)CC1 [Example 270, 6-(4-{1-[(2-Chlorophenyl)methyl]piperidin-4-yl}-1,4-diazepan-1-yl)-N-(cyclopropylmethyl)-5-methoxypyridine-2-carboxamide]	0.1 to 0.5 µM	
c1cc(CN2CCCNCCNCCCNCC2)ccc1CN1CCCNCCNCCCNCC1 [Mozobil]		success rate of stem cell mobilisation (sufficient yield) [5]: ~90%
